From patent publication US20230295580A1, “SPHEROID GENERATOR, SPHEROID CULTURE KIT, AND SPHEROID CULTURE METHOD” (RESEARCH AND BUSINESS FOUNDATION SUNGKYUNKWAN UNIVERSITY, priority 2020, published 2023)

Tested on: cancer cells of the spheroid
Experiment: Spheroid culture with anticancer substance injected through sub-injection part; live/dead cancer cell viability
Type: cell-based
Conditions: spheroid formed for 12 to 36 hours, then anticancer substance for 12 to 36 hours; increasing injected volume of TMZ; Dead/Live/Merge images, microscope
Experimental: Referring to FIG. 11 to FIG. 13, a spheroid generator 10 in which the size of a sub-injection part 18 is increased from one side to the other side of a culture plate 120 is disposed (S11). In this case, main injection parts 14 having the same size are formed in all of the spheroid generators 10.
A cancer cell solution 21 is prepared (S12). That is, the cancer cell solution 21 is prepared by mixing a plurality of cancer cells with a culture medium 24.
The cancer cell solution 21 is injected into the main injection parts 14 of the plurality of spheroid generators 10 (S13). In this case, since main injection parts 14 having the same size are formed in all of the spheroid generators 10, the same amount of the cancer cell solution 21 is injected into all of the main injection parts 14.
As the cancer cells of the cancer cell solution 21 are cultured in the plurality of spheroid generators 10, a spheroid 25 is formed (S14). In this case, the step of forming a spheroid 25 as the cancer cells of the cancer cell solution 21 are cultured in the plurality of spheroid generators 10 is performed for 12 to 36 hours.
An anticancer substance 23 is injected into a sub-injection part 18 of the plurality of spheroid generators 10 (S15). […]

Cn1nnc2c(C(N)=O)ncn2c1=O [TMZ]
relative viability of cancer cells: decreases
